# The source made the active and inactive calls. For most assays here, no stated cut-off is given here; in the data, actives have a measured Kd and inactives only a lower limit.
# Assays:
# [1] = target: T1, Bifunctional phosphoribosylaminoimidazole carboxylase/phosphoribosylaminoimidazole succinocarboxamide synthetase (Homo sapiens, UniProt P22234)
# T1 sequence (P22234 whole entry): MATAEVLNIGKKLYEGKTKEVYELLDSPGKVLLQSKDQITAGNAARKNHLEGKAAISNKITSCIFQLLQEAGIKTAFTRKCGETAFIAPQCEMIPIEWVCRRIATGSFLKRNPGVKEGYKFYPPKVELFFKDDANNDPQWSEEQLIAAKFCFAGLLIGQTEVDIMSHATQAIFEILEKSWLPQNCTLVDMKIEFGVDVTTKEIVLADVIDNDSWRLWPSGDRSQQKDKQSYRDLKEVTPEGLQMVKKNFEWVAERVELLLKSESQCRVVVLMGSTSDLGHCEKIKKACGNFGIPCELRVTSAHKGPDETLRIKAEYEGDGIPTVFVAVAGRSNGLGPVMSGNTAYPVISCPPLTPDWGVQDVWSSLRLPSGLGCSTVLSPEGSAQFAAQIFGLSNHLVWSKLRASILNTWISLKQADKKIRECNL
# Ephrin type-B receptor 4 = target: T2, Ephrin type-B receptor 4 (Homo sapiens, UniProt P54760)
# T2 sequence (P54760 whole entry): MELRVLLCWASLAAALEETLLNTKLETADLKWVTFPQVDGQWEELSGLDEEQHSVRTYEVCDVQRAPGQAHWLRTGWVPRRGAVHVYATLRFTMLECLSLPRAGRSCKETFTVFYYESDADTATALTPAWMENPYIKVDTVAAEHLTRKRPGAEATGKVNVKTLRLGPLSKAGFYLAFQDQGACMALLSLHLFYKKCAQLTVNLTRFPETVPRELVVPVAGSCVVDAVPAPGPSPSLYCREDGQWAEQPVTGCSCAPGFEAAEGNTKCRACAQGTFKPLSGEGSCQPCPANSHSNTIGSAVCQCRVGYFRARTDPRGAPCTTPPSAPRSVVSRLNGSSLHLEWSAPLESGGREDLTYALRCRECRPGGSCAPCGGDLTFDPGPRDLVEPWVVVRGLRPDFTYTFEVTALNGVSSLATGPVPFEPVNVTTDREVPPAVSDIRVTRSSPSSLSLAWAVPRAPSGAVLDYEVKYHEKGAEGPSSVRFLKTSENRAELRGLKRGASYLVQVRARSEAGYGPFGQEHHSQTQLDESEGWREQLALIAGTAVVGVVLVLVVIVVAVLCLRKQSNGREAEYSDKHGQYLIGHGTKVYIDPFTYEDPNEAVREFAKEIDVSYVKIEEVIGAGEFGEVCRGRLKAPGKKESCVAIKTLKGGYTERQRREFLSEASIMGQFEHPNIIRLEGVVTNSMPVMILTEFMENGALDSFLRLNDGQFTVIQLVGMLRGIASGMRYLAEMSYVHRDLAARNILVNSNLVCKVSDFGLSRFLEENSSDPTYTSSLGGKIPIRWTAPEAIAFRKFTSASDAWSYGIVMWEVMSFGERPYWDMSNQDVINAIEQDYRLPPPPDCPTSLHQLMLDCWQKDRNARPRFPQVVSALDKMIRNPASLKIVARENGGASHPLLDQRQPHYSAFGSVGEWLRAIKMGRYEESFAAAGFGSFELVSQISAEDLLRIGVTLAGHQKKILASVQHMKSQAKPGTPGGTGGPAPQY
# [2] = target: T3, Signal recognition particle receptor subunit alpha (Homo sapiens, UniProt P08240)
# T3 sequence (P08240 whole entry): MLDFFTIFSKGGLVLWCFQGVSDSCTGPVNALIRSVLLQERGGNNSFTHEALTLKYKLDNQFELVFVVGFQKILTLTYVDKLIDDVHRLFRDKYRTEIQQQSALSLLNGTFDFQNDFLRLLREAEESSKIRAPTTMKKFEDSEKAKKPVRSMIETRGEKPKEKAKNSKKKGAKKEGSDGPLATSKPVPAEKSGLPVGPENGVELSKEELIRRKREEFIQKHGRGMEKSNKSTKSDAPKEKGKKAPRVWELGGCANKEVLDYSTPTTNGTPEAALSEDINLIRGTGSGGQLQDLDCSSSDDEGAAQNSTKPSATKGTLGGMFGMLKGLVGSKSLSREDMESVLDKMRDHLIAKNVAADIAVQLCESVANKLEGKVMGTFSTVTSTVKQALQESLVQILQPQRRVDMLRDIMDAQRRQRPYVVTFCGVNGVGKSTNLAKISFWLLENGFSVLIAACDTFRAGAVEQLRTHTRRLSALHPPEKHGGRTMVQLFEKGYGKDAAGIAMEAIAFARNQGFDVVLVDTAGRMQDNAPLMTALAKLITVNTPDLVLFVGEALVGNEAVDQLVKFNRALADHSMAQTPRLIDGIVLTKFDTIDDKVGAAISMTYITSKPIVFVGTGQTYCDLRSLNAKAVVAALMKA
# [3] = target: AP2-associated protein kinase 1 (Homo sapiens, UniProt Q2M2I8)
# AP2-associated protein kinase 1, sequence (Q2M2I8 whole entry): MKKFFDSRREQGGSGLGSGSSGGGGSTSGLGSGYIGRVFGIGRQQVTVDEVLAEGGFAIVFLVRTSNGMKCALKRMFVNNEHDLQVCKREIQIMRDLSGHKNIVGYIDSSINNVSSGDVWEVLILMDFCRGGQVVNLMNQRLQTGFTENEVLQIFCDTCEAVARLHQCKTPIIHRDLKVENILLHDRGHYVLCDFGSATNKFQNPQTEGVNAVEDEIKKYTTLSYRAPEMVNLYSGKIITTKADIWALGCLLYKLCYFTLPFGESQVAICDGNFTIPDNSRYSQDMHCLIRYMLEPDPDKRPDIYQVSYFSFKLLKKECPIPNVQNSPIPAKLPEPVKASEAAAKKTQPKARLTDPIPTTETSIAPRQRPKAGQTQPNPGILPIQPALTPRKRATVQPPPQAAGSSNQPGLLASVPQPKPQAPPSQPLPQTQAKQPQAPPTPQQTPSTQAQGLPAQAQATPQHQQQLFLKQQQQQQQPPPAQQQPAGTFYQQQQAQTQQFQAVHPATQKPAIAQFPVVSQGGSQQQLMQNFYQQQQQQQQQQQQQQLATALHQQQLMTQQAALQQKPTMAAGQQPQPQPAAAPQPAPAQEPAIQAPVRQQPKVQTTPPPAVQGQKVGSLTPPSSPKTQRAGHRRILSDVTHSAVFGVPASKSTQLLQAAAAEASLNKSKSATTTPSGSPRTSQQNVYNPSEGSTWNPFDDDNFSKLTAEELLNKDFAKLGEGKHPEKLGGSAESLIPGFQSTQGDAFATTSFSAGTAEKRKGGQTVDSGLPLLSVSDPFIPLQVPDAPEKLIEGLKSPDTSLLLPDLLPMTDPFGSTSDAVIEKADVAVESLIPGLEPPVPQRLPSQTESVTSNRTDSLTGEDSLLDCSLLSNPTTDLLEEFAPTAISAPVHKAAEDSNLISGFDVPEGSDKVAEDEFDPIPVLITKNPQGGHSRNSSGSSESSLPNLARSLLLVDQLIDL
# [4] = target: Tyrosine-protein kinase Fyn (Homo sapiens, UniProt P06241)
# Tyrosine-protein kinase Fyn, sequence (P06241 whole entry): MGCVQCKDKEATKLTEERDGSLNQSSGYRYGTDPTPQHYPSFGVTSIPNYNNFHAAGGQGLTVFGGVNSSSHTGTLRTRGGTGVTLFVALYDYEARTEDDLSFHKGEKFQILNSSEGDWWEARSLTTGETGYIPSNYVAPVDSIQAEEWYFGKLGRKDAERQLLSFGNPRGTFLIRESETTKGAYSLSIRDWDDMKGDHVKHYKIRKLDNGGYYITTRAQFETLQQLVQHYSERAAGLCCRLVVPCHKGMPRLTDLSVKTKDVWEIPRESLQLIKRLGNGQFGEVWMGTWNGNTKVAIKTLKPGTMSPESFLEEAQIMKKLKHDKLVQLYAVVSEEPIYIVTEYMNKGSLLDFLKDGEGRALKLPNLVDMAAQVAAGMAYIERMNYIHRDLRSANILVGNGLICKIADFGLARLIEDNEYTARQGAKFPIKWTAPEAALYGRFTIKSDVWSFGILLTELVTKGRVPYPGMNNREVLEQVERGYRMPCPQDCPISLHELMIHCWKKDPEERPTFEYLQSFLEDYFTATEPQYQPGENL
# [5] = target: MAP/microtubule affinity-regulating kinase 3 (Homo sapiens, UniProt P27448)
# MAP/microtubule affinity-regulating kinase 3, sequence (P27448 whole entry): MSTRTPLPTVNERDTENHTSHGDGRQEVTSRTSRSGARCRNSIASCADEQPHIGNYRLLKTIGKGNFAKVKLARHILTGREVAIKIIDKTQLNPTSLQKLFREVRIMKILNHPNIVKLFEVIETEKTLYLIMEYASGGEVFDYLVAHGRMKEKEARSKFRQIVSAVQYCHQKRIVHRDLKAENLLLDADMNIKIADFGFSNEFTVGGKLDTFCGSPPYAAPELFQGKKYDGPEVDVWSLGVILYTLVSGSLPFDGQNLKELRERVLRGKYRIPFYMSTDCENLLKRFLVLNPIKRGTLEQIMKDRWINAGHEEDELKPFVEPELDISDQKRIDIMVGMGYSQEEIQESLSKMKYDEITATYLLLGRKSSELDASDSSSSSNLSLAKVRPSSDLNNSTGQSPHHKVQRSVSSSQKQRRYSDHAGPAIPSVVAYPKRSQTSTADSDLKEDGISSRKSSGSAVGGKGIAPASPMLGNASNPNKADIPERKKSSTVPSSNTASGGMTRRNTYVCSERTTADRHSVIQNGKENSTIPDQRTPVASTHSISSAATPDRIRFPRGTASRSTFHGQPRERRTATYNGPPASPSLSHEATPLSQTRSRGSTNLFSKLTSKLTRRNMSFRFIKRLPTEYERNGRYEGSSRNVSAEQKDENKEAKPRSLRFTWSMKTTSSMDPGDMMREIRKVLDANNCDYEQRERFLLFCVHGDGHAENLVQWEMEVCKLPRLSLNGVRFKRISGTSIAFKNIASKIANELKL
# [6] = target: T4, Acyl-CoA dehydrogenase family member 11 (Homo sapiens, UniProt Q709F0)
# T4 sequence (Q709F0 whole entry): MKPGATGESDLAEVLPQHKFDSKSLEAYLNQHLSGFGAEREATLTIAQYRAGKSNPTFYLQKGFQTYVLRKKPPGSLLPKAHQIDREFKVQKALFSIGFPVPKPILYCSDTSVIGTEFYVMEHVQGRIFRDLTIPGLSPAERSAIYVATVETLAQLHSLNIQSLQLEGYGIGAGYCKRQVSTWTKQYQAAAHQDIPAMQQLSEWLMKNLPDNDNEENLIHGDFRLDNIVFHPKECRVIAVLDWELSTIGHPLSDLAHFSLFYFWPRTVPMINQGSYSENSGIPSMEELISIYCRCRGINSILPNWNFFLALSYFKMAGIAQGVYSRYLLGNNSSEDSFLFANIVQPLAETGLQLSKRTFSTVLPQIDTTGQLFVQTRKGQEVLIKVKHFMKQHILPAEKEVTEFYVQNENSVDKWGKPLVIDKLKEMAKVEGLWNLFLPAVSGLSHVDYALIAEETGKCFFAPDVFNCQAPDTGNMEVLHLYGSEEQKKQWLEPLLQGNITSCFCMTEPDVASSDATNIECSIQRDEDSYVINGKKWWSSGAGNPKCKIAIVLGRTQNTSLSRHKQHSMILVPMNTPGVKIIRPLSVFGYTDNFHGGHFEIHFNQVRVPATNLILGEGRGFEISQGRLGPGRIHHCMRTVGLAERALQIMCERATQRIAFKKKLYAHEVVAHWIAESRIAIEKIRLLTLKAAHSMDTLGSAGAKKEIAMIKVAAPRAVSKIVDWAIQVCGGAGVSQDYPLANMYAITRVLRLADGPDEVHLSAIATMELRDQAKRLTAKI
SMILES,Kd [1],Kd (Ephrin type-B receptor 4),Kd [2],Kd [3],Kd [4],Kd [5],Kd [6]
CCCS(=O)(=O)Nc1ccc(F)c(C(=O)c2c[nH]c3ncc(-c4ccc(Cl)cc4)cc23)c1F [VEMURAFENIB],> 30 µM (inactive),> 30 µM (inactive),,> 30 µM (inactive),> 30 µM (inactive),> 30 µM (inactive),> 30 µM (inactive)
C=CC(=O)N1CCC(Oc2cc3c(Nc4ccc(Cl)c(Cl)c4F)ncnc3cc2OC)CC1 [POZIOTINIB],> 30 µM (inactive),0.34 µM (active),> 30 µM (inactive),> 30 µM (inactive),> 30 µM (inactive),> 30 µM (inactive),
Nc1nc(N)c2nc(-c3cccc(O)c3)c(-c3cccc(O)c3)nc2n1 [TG100-115],> 30 µM (inactive),,> 30 µM (inactive),,,,> 30 µM (inactive)
O=C(Nc1cccc(Cl)c1)Nc1ncc(CCNc2ncnc3ccsc23)s1 [SNS-314],> 30 µM (inactive),> 30 µM (inactive),,> 30 µM (inactive),,,> 30 µM (inactive)
CN1CC[C@@H](c2c(O)cc(O)c3c(=O)cc(-c4ccccc4Cl)oc23)[C@@H]1CO,> 30 µM (inactive),> 30 µM (inactive),> 30 µM (inactive),> 30 µM (inactive),> 30 µM (inactive),> 30 µM (inactive),
O=c1sn(-c2cccc3ccccc23)c(=O)n1Cc1ccccc1 [TIDEGLUSIB],> 30 µM (inactive),> 30 µM (inactive),> 30 µM (inactive),> 30 µM (inactive),> 30 µM (inactive),> 30 µM (inactive),
C[C@@H](c1ccc2nccn2c1)n1nnc2ncc(-c3cnn(C)c3)nc21 [SAVOLITINIB],> 30 µM (inactive),> 30 µM (inactive),> 30 µM (inactive),> 30 µM (inactive),> 30 µM (inactive),> 30 µM (inactive),
CN1CCN(c2ccc3nc(-c4c(N)c5c(F)cccc5[nH]c4=O)[nH]c3c2)CC1 [DOVITINIB],> 30 µM (inactive),,,,,,> 30 µM (inactive)
CN(C)C(=O)c1cc2cnc(Nc3ccc(N4CCNCC4)cn3)nc2n1C1CCCC1 [RIBOCICLIB],> 30 µM (inactive),> 30 µM (inactive),> 30 µM (inactive),> 30 µM (inactive),> 30 µM (inactive),> 30 µM (inactive),
C1=C/COCc2cc(ccc2OCCN2CCCC2)Nc2nccc(n2)-c2cccc(c2)COC/1 [PACRITINIB],> 30 µM (inactive),> 30 µM (inactive),> 30 µM (inactive),0.042 µM (active),> 30 µM (inactive),> 30 µM (inactive),
CNC(=O)CN1CCC(Oc2cc3c(Nc4cccc(Cl)c4F)ncnc3cc2OC)CC1 [SAPITINIB],> 30 µM (inactive),0.556 µM (active),,> 30 µM (inactive),> 30 µM (inactive),> 30 µM (inactive),> 30 µM (inactive)
Cn1ncc(Cl)c1-c1cc(C(=O)N[C@H](CN)Cc2cccc(F)c2)sc1Cl [AFURESERTIB],> 30 µM (inactive),> 30 µM (inactive),,> 30 µM (inactive),> 30 µM (inactive),> 30 µM (inactive),
CCc1cnn2c(NCc3ccc[n+]([O-])c3)cc(N3CCCC[C@H]3CCO)nc12 [DINACICLIB],> 30 µM (inactive),> 30 µM (inactive),> 30 µM (inactive),> 30 µM (inactive),,> 30 µM (inactive),> 30 µM (inactive)
Cc1cn(-c2cc(NC(=O)c3ccc(C)c(Nc4nccc(-c5cccnc5)n4)c3)cc(C(F)(F)F)c2)cn1 [NILOTINIB],> 30 µM (inactive),,> 30 µM (inactive),,,,> 30 µM (inactive)
Cc1ccc(-n2nc(C(C)(C)C)cc2NC(=O)NCc2cc(F)ccc2Oc2ccc3c(cnn3CCO)c2)cc1 [PEXMETINIB],> 30 µM (inactive),5.21 µM,> 30 µM (inactive),> 30 µM (inactive),2.14 µM,> 30 µM (inactive),

# Now from value to compound:
Kd [1],Kd (Ephrin type-B receptor 4),Kd [2],Kd [3],Kd [4],Kd [5],Kd [6],SMILES
> 30 µM (inactive),> 30 µM (inactive),> 30 µM (inactive),0.006 µM (active),> 30 µM (inactive),1.61 µM (active),,O=C(Nc1ccc(-c2ccnc(Nc3ccc(N4CCOCC4)cc3)n2)cc1)C1CCCN1 (stereo unspecified) [XL-019]
> 30 µM (inactive),> 30 µM (inactive),0.008 µM,,,,> 30 µM (inactive),Cc1cc(Nc2cc(N3CCN(C)CC3)nc(/C=C/c3ccccc3)n2)n[nH]1 [ENMD-2076]
> 30 µM (inactive),> 30 µM (inactive),> 30 µM (inactive),1.32 µM (active),1.53 µM (active),> 30 µM (inactive),,COc1cc(N2CCC(N3CCN(C)CC3)CC2)ccc1Nc1ncnc(Nc2ccccc2S(=O)(=O)C(C)C)n1 [ASP-3026]
> 30 µM (inactive),,> 30 µM (inactive),,,,,CCn1c(-c2nonc2N)nc2c(C#CC(C)(C)O)ncc(OC[C@H]3CCCNC3)c21 [GSK-690693]
> 30 µM (inactive),4.61 µM (active),> 30 µM (inactive),0.006 µM (active),,,> 30 µM (inactive),Cc1nc(N)sc1-c1ccnc(Nc2ccc(N3CCOCC3)cc2)n1 [CYC-116]
> 30 µM (inactive),> 30 µM (inactive),,> 30 µM (inactive),,> 30 µM (inactive),> 30 µM (inactive),OCCn1cc(-c2cnc3nnn(Cc4ccc5ncccc5c4)c3n2)cn1 [PF-04217903]
> 30 µM (inactive),> 30 µM (inactive),,> 30 µM (inactive),> 30 µM (inactive),> 30 µM (inactive),> 30 µM (inactive),CNC(=O)c1ccc(C)c(-n2c(C)cc(OCc3ccc(F)cc3F)c(Br)c2=O)c1 [PH-797804]
